Data: patent US20220096516A1, “OLIGONUCLEOTIDE MOLECULE AND APPLICATION THEREOF IN TUMOR THERAPY” (Ractigen Therapeutics, priority 2019, published 2022)
d = 2'-deoxy (DNA); r = 2'-OH (RNA)

test system: LHPP gene; assay: High-throughput screening of saRNAs targeting LHPP promoter: LHPP mRNA by one-step RT-qPCR in Huh7 cells; type: cell-based, human; details: 10 nM saRNA, 72 hours, relative to control (Mock)
Method in brief: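 Huh7 cells were transfected with 10 nM saRNA using RNAiMax and lysed 72 h later. LHPP mRNA was quantified by one-step RT-qPCR in triplicate wells. Expression was normalised to HPRT1 and TBP and given as fold change versus mock-transfected cells.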

| Substance | Fold of changes in relative LHPP mRNA expression level | Fold of changes in relative LHPP mRNA expression level (log2) |
| --- | --- | --- |
| RAG7-112: saRNA duplex; sense UGGGAAGAAAGCUUCCGAATT (SEQ ID NO: 82), antisense UUCGGAAGCUUUCUUCCCATT (SEQ ID NO: 246) (sugars from the 5' end r19 d2, backbone not given here) | 1.26 fold | 0.33 log2 |
| RAG7-31: saRNA duplex; sense UGCACCCGGUCUUCUUGCCTT (SEQ ID NO: 94), antisense GGCAAGAAGACCGGGUGCATT (SEQ ID NO: 258) (sugars from the 5' end r19 d2, backbone not given here) | 1.23 fold | 0.30 log2 |
| RAG7-677: saRNA duplex; sense AUCUAUGCAGGGCUGUUAUTT (SEQ ID NO: 20), antisense AUAACAGCCCUGCAUAGAUTT (SEQ ID NO: 184) (sugars from the 5' end r19 d2, backbone not given here) | 1.56 fold | 0.64 log2 |
| RAG7-182: saRNA duplex; sense UCUCAAUUUGCCUUUGACCTT (SEQ ID NO: 85), antisense GGUCAAAGGCAAAUUGAGATT (SEQ ID NO: 249) (sugars from the 5' end r19 d2, backbone not given here) | 1.26 fold | 0.33 log2 |
| RAG7-883: saRNA duplex; sense AGAAGUAAAGUGUUCUCGUTT (SEQ ID NO: 161), antisense ACGAGAACACUUUACUUCUTT (SEQ ID NO: 325) (sugars from the 5' end r19 d2, backbone not given here) | 1.11 fold | 0.14 log2 |
| RAG7-191: saRNA duplex; sense GCCUUCUUGUCUCAAUUUGTT (SEQ ID NO: 88), antisense CAAAUUGAGACAAGAAGGCTT (SEQ ID NO: 252) (sugars from the 5' end r19 d2, backbone not given here) | 1.25 fold | 0.32 log2 |
| RAG7-126: saRNA duplex; sense GUCCGCUGAUCUCCUGGGATT (SEQ ID NO: 45), antisense UCCCAGGAGAUCAGCGGACTT (SEQ ID NO: 209) (sugars from the 5' end r19 d2, backbone not given here) | 1.39 fold | 0.48 log2 |
| RAG7-679: saRNA duplex; sense UCAUCUAUGCAGGGCUGUUTT (SEQ ID NO: 107), antisense AACAGCCCUGCAUAGAUGATT (SEQ ID NO: 271) (sugars from the 5' end r19 d2, backbone not given here) | 1.20 fold | 0.27 log2 |
| RAG7-852: saRNA duplex; sense ACUUGAAAGGUUCCGAGGGTT (SEQ ID NO: 128), antisense CCCUCGGAACCUUUCAAGUTT (SEQ ID NO: 292) (sugars from the 5' end r19 d2, backbone not given here) | 1.17 fold | 0.22 log2 |
| RAG7-165: saRNA duplex; sense CCUUUCUUAGGGACUUGUUTT (SEQ ID NO: 152), antisense AACAAGUCCCUAAGAAAGGTT (SEQ ID NO: 316) (sugars from the 5' end r19 d2, backbone not given here) | 1.11 fold | 0.16 log2 |
| RAG7-44: saRNA duplex; sense CCAGUUCCGGGUUUGCACCTT (SEQ ID NO: 121), antisense GGUGCAAACCCGGAACUGGTT (SEQ ID NO: 285) (sugars from the 5' end r19 d2, backbone not given here) | 1.18 fold | 0.24 log2 |
| RAG7-908: saRNA duplex; sense UGAAAGCUCAAAGCUAUGUTT (SEQ ID NO: 31), antisense ACAUAGCUUUGAGCUUUCATT (SEQ ID NO: 195) (sugars from the 5' end r19 d2, backbone not given here) | 1.49 fold | 0.57 log2 |
| RAG7-832: saRNA duplex; sense CCAUUGAGGAAACUCCUCCTT (SEQ ID NO: 139), antisense GGAGGAGUUUCCUCAAUGGTT (SEQ ID NO: 303) (sugars from the 5' end r19 d2, backbone not given here) | 1.14 fold | 0.19 log2 |
| RAG7-123: saRNA duplex; sense CGCUGAUCUCCUGGGAAGATT (SEQ ID NO: 68), antisense UCUUCCCAGGAGAUCAGCGTT (SEQ ID NO: 232) (sugars from the 5' end r19 d2, backbone not given here) | 1.30 fold | 0.38 log2 |
| RAG7-149: saRNA duplex; sense GUUUUCUGCUUUUCCUGCUTT (SEQ ID NO: 99), antisense AGCAGGAAAAGCAGAAAACTT (SEQ ID NO: 263) (sugars from the 5' end r19 d2, backbone not given here) | 1.22 fold | 0.29 log2 |
| RAG7-684: saRNA duplex; sense CAUCCUCAUCUAUGCAGGGTT (SEQ ID NO: 47), antisense CCCUGCAUAGAUGAGGAUGTT (SEQ ID NO: 211) (sugars from the 5' end r19 d2, backbone not given here) | 1.39 fold | 0.47 log2 |
| RAG7-826: saRNA duplex; sense AGGAAACUCCUCCCUUUUATT (SEQ ID NO: 157), antisense UAAAAGGGAGGAGUUUCCUTT (SEQ ID NO: 321) (sugars from the 5' end r19 d2, backbone not given here) | 1.11 fold | 0.15 log2 |
| RAG7-736: saRNA duplex; sense UGGGUUUAACGCAUUGUGATT (SEQ ID NO: 131), antisense UCACAAUGCGUUAAACCCATT (SEQ ID NO: 295) (sugars from the 5' end r19 d2, backbone not given here) | 1.16 fold | 0.22 log2 |
| RAG7-134: saRNA duplex; sense UGCUCUUUGUCCGCUGAUCTT (SEQ ID NO: 75), antisense GAUCAGCGGACAAAGAGCATT (SEQ ID NO: 239) (sugars from the 5' end r19 d2, backbone not given here) | 1.28 fold | 0.36 log2 |
| RAG7-137: saRNA duplex; sense UCCUGCUCUUUGUCCGCUGTT (SEQ ID NO: 151), antisense CAGCGGACAAAGAGCAGGATT (SEQ ID NO: 315) (sugars from the 5' end r19 d2, backbone not given here) | 1.12 fold | 0.16 log2 |
| RAG7-693: saRNA duplex; sense GGUCCUAUGCAUCCUCAUCTT (SEQ ID NO: 98), antisense GAUGAGGAUGCAUAGGACCTT (SEQ ID NO: 262) (sugars from the 5' end r19 d2, backbone not given here) | 1.22 fold | 0.29 log2 |
| RAG7-179: saRNA duplex; sense CAAUUUGCCUUUGACCUUUTT (SEQ ID NO: 39), antisense AAAGGUCAAAGGCAAAUUGTT (SEQ ID NO: 203) (sugars from the 5' end r19 d2, backbone not given here) | 1.45 fold | 0.53 log2 |
| RAG7-86: saRNA duplex; sense CCGUUUCAGGGGCGAGUGATT (SEQ ID NO: 137), antisense UCACUCGCCCCUGAAACGGTT (SEQ ID NO: 301) (sugars from the 5' end r19 d2, backbone not given here) | 1.15 fold | 0.20 log2 |
| RAG7-183: saRNA duplex; sense GUCUCAAUUUGCCUUUGACTT (SEQ ID NO: 27), antisense GUCAAAGGCAAAUUGAGACTT (SEQ ID NO: 191) (sugars from the 5' end r19 d2, backbone not given here) | 1.51 fold | 0.59 log2 |
| RAG7-176: saRNA duplex; sense UUUGCCUUUGACCUUUCUUTT (SEQ ID NO: 110), antisense AAGAAAGGUCAAAGGCAAATT (SEQ ID NO: 274) (sugars from the 5' end r19 d2, backbone not given here) | 1.20 fold | 0.26 log2 |
